Measurements as given in US20230085307A1, “PYRIDAZINONE COMPOUND AND HERBICIDE” (NISSAN CHEMICAL CORPORATION, priority 2019, published 2023).

What was measured:
barnyard grass [1] = assay: Test Example 3: herbicidal effect by foliage application, Wagner pot (Table 18, symbol H); assay type: in vivo, barnyard grass (Echinochloa crus-galli)
Outline: (§1)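 Plants were sown in alluvial soil held under 0.1–0.5 cm standing water and grown 14 days in a greenhouse at 25–30 °C. An emulsifiable formulation, water-diluted to the set dose, was then sprayed onto the foliage, and effects were scored three weeks later using previously defined criteria.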

southern crabgrass [2] = assay: Test Example 5: herbicidal effect by foliage application, plastic box (Table 20, symbol F); assay type: in vivo, southern crabgrass (Digitaria ciliaris); conditions: foliage application
Outline: (§2)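 Sow seeds spot-wise in sterilized diluvial soil; cover with ~1.5 cm soil. Grow 14 days in greenhouse, 25° C. to 30° C. Spray foliage with emulsion diluted to predetermined amount. Rate effect after 3 weeks.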

wild oat [3] = assay: Test Example 4: herbicidal effect by soil treatment (Table 19, symbol I); assay type: in vivo, wild oat (Avena fatua); conditions: amount of applied herbicide 320 g/ha
Outline: (§3)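 Soil-surface application: an emulsion agent diluted with water to the predetermined dose is sprayed uniformly over seeds lying under roughly 1.5 cm of sterilized diluvial soil. Boxes stay in a greenhouse at 25° C. to 30° C. Three weeks later, each species is graded on previously defined criteria.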

false cleavers = assay: Test Example 4: herbicidal effect by soil treatment (Table 19, symbol Q); assay type: in vivo, false cleavers (Galium spurium); conditions: amount of applied herbicide 320 g/ha
Outline: as §3

rice flat sedge = assay: Test Example 3: herbicidal effect by foliage application, Wagner pot (Table 18, symbol E); assay type: in vivo, rice flat sedge (Cyperus iria)
Outline: as §1

lambsquarters [4] = assay: Test Example 4: herbicidal effect by soil treatment (Table 19, symbol O); assay type: in vivo, lambsquarters (Chenopodium album); conditions: amount of applied herbicide 320 g/ha
Outline: as §3

green foxtail [5] = assay: Test Example 5: herbicidal effect by foliage application, plastic box (Table 20, symbol G); assay type: in vivo, green foxtail (Setaria viridis); conditions: foliage application
Outline: as §2

oval-leafed pondweed = assay: Test Example 1: herbicidal activity, application before weed generation under submerged conditions (Table 16, symbol C); assay type: in vivo, oval-leafed pondweed (Monochoria vaginalis)
Outline: (§4)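 Alluvial soil was flooded to 4 cm depth, weed seeds were sown mixed and 2.5-leaf rice seedlings were transplanted. On sowing day, the compound's emulsion, diluted in water to a set dose, was applied to the water surface. Plants grew at 25–30 °C and were scored 0–5 after three weeks.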

persian speedwell [6] = assay: Test Example 5: herbicidal effect by foliage application, plastic box (Table 20, symbol R); assay type: in vivo, Persian speedwell (Veronica persica); conditions: foliage application
Outline: as §2

Italian ryegrass [7] = assay: Test Example 4: herbicidal effect by soil treatment (Table 19, symbol K); assay type: in vivo, Italian ryegrass (Lolium multiflorum); conditions: amount of applied herbicide 320 g/ha
Outline: as §3

redroot pigweed [8] = assay: Test Example 4: herbicidal effect by soil treatment (Table 19, symbol N); assay type: in vivo, redroot pigweed (Amaranthus retroflexus); conditions: amount of applied herbicide 320 g/ha
Outline: as §3

Japanese bulrush = assay: Test Example 1: herbicidal activity, application before weed generation under submerged conditions (Table 16, symbol B); assay type: in vivo, Japanese bulrush (Schoenoplectus juncoides)
Outline: as §4

chickweed [9] = assay: Test Example 4: herbicidal effect by soil treatment (Table 19, symbol P); assay type: in vivo, common chickweed (Stellaria media); conditions: amount of applied herbicide 320 g/ha
Outline: as §3

blackgrass [10] = assay: Test Example 5: herbicidal effect by foliage application, plastic box (Table 20, symbol J); assay type: in vivo, blackgrass (Alopecurus myosuroides); conditions: foliage application
Outline: as §2

windgrass [11] = assay: Test Example 4: herbicidal effect by soil treatment (Table 19, symbol L); assay type: in vivo, windgrass (Apera spica-venti); conditions: amount of applied herbicide 320 g/ha
Outline: as §3

wild oat [12] = assay: Test Example 5: herbicidal effect by foliage application, plastic box (Table 20, symbol I); assay type: in vivo, wild oat (Avena fatua); conditions: foliage application
Outline: as §2

velvetleaf [13] = assay: Test Example 4: herbicidal effect by soil treatment (Table 19, symbol M); assay type: in vivo, velvetleaf (Abutilon theophrasti); conditions: amount of applied herbicide 320 g/ha
Outline: as §3

barnyard grass [14] = assay: Test Example 4: herbicidal effect by soil treatment (Table 19, symbol H); assay type: in vivo, barnyard grass (Echinochloa crus-galli); conditions: amount of applied herbicide 320 g/ha
Outline: as §3

lambsquarters [15] = assay: Test Example 5: herbicidal effect by foliage application, plastic box (Table 20, symbol O); assay type: in vivo, lambsquarters (Chenopodium album); conditions: foliage application
Outline: as §2

windgrass [16] = assay: Test Example 5: herbicidal effect by foliage application, plastic box (Table 20, symbol L); assay type: in vivo, windgrass (Apera spica-venti); conditions: foliage application
Outline: as §2

green foxtail [17] = assay: Test Example 4: herbicidal effect by soil treatment (Table 19, symbol G); assay type: in vivo, green foxtail (Setaria viridis); conditions: amount of applied herbicide 320 g/ha
Outline: as §3

persian speedwell [18] = assay: Test Example 4: herbicidal effect by soil treatment (Table 19, symbol R); assay type: in vivo, Persian speedwell (Veronica persica); conditions: amount of applied herbicide 320 g/ha
Outline: as §3

blackgrass [19] = assay: Test Example 4: herbicidal effect by soil treatment (Table 19, symbol J); assay type: in vivo, blackgrass (Alopecurus myosuroides); conditions: amount of applied herbicide 320 g/ha
Outline: as §3

redroot pigweed [20] = assay: Test Example 5: herbicidal effect by foliage application, plastic box (Table 20, symbol N); assay type: in vivo, redroot pigweed (Amaranthus retroflexus); conditions: foliage application
Outline: as §2

chickweed [21] = assay: Test Example 5: herbicidal effect by foliage application, plastic box (Table 20, symbol P); assay type: in vivo, common chickweed (Stellaria media); conditions: foliage application
Outline: as §2

southern crabgrass [22] = assay: Test Example 4: herbicidal effect by soil treatment (Table 19, symbol F); assay type: in vivo, southern crabgrass (Digitaria ciliaris); conditions: amount of applied herbicide 320 g/ha
Outline: as §3

barnyard grass [23] = assay: Test Example 5: herbicidal effect by foliage application, plastic box (Table 20, symbol H); assay type: in vivo, barnyard grass (Echinochloa crus-galli); conditions: foliage application
Outline: as §2

Italian ryegrass [24] = assay: Test Example 5: herbicidal effect by foliage application, plastic box (Table 20, symbol K); assay type: in vivo, Italian ryegrass (Lolium multiflorum); conditions: foliage application
Outline: as §2

velvetleaf [25] = assay: Test Example 5: herbicidal effect by foliage application, plastic box (Table 20, symbol M); assay type: in vivo, velvetleaf (Abutilon theophrasti); conditions: foliage application
Outline: as §2

late watergrass = assay: Test Example 1: herbicidal activity, application before weed generation under submerged conditions (Table 16, symbol A); assay type: in vivo, late watergrass (Echinochloa oryzicola)
Outline: as §4

Chinese sprangletop = assay: Test Example 3: herbicidal effect by foliage application, Wagner pot (Table 18, symbol D); assay type: in vivo, chinese sprangletop (Leptochloa chinensis)
Outline: as §1

[26] = amount of applied herbicide 320 g/ha
[27] = AAH 320 g/ha, evaluated three weeks after application
[28] = 320 g/ha, three weeks after application

## Cc1nn(C)c(=O)c(-c2c(-c3cccc(O)c3)sc3ccc(F)cc23)c1O [2-336]
Barnyard grass [1]; [26]
  herbicidal effect on H: barnyard grass: 5 (Herbicidal rate of 90% or more (almost completely withered))
Southern crabgrass [2]; [27]
  F: southern crabgrass, herbicidal effect (criteria 0-5): 5 (Herbicidal rate of 90% or more (almost completely withered))
Wild oat [3]
  herbicidal effect on I: wild oat: 0 (Herbicidal rate of 5% or less (almost no effect))
False cleavers
  herbicidal effect on Q: false cleavers: 0 (Herbicidal rate of 5% or less (almost no effect))
Rice flat sedge; [26]
  herbicidal effect on E: rice flat sedge: 3 (Herbicidal rate of 40% or more and less than 70%)
Lambsquarters [4]
  herbicidal effect on O: lambsquarters: 3 (Herbicidal rate of 40% or more and less than 70%)
Green foxtail [5]; [27]
  G: green foxtail, herbicidal effect (criteria 0-5): 5 (Herbicidal rate of 90% or more (almost completely withered))
oval-leafed pondweed; 320 g/ha applied herbicide
  Herbicidal effect on C: oval-leafed pondweed (grade 0-5): 0 (Herbicidal rate of 5% or less (almost no effect))
Persian speedwell [6]; [27]
  R: persian speedwell, herbicidal effect (criteria 0-5): 5 (Herbicidal rate of 90% or more (almost completely withered))
Italian ryegrass [7]
  herbicidal effect on K: Italian ryegrass: 3 (Herbicidal rate of 40% or more and less than 70%)
Redroot pigweed [8]
  herbicidal effect on N: redroot pigweed: 5 (Herbicidal rate of 90% or more (almost completely withered))
Japanese bulrush; 320 g/ha applied herbicide
  Herbicidal effect on B: Japanese bulrush (grade 0-5): 3 (Herbicidal rate of 40% or more and less than 70%)
Chickweed [9]
  herbicidal effect on P: chickweed: 3 (Herbicidal rate of 40% or more and less than 70%)
Blackgrass [10]; [27]
  J: blackgrass, herbicidal effect (criteria 0-5): 3 (Herbicidal rate of 40% or more and less than 70%)
Windgrass [11]
  herbicidal effect on L: windgrass: 0 (Herbicidal rate of 5% or less (almost no effect))
Wild oat [12]; [27]
  I: wild oat, herbicidal effect (criteria 0-5): 0 (Herbicidal rate of 5% or less (almost no effect))
Velvetleaf [13]
  herbicidal effect on M: velvetleaf: 3 (Herbicidal rate of 40% or more and less than 70%)
Barnyard grass [14]
  herbicidal effect on H: barnyard grass: 4 (Herbicidal rate of 70% or more and less than 90%)
Lambsquarters [15]; [27]
  O: lambsquarters, herbicidal effect (criteria 0-5): 4 (Herbicidal rate of 70% or more and less than 90%)
Windgrass [16]; [27]
  L: windgrass, herbicidal effect (criteria 0-5): 4 (Herbicidal rate of 70% or more and less than 90%)
Green foxtail [17]
  herbicidal effect on G: green foxtail: 5 (Herbicidal rate of 90% or more (almost completely withered))
Persian speedwell [18]
  herbicidal effect on R: persian speedwell: 5 (Herbicidal rate of 90% or more (almost completely withered))
Blackgrass [19]
  herbicidal effect on J: blackgrass: 0 (Herbicidal rate of 5% or less (almost no effect))
Redroot pigweed [20]; [27]
  N: redroot pigweed, herbicidal effect (criteria 0-5): 5 (Herbicidal rate of 90% or more (almost completely withered))
Chickweed [21]; [27]
  P: chickweed, herbicidal effect (criteria 0-5): 5 (Herbicidal rate of 90% or more (almost completely withered))
Southern crabgrass [22]
  herbicidal effect on F: southern crabgrass: 3 (Herbicidal rate of 40% or more and less than 70%)
Barnyard grass [23]; [27]
  H: barnyard grass, herbicidal effect (criteria 0-5): 1 (Herbicidal rate of 5% or more and less than 20%)
Italian ryegrass [24]; [27]
  K: Italian ryegrass, herbicidal effect (criteria 0-5): 4 (Herbicidal rate of 70% or more and less than 90%)
Velvetleaf [25]; [27]
  M: velvetleaf, herbicidal effect (criteria 0-5): 1 (Herbicidal rate of 5% or more and less than 20%)
Late watergrass; 320 g/ha applied herbicide
  Herbicidal effect on A: late watergrass (grade 0-5): 0 (Herbicidal rate of 5% or less (almost no effect))
Chinese sprangletop; [26]
  herbicidal effect on D: Chinese sprangletop: 0 (Herbicidal rate of 5% or less (almost no effect))

## COc1ccccc1-c1sc2cc(Cl)ccc2c1-c1c(O)c(C)nn(C)c1=O [3-035]
Barnyard grass [1]; 320 g/ha
  herbicidal effect on barnyard grass (H): 4 (Herbicidal rate of 70% or more and less than 90%)
Southern crabgrass [2]; [28]
  F: southern crabgrass, herbicidal effect grade: 4 (Herbicidal rate of 70% or more and less than 90%)
Wild oat [3]
  I: wild oat, herbicidal effect grade: 0 (Herbicidal rate of 5% or less (almost no effect))
False cleavers
  Q: false cleavers, herbicidal effect grade: 3 (Herbicidal rate of 40% or more and less than 70%)
Rice flat sedge; 320 g/ha
  herbicidal effect on rice flat sedge (E): 5 (Herbicidal rate of 90% or more (almost completely withered))
Lambsquarters [4]
  O: lambsquarters, herbicidal effect grade: 5 (Herbicidal rate of 90% or more (almost completely withered))
Green foxtail [5]; [28]
  G: green foxtail, herbicidal effect grade: 5 (Herbicidal rate of 90% or more (almost completely withered))
oval-leafed pondweed; [26]
  Herbicidal effect, C: oval-leafed pondweed: 0 (Herbicidal rate of 5% or less (almost no effect))
Persian speedwell [6]; [28]
  R: persian speedwell, herbicidal effect grade: 5 (Herbicidal rate of 90% or more (almost completely withered))
Italian ryegrass [7]
  K: Italian ryegrass, herbicidal effect grade: 2 (Herbicidal rate of 20% or more and less than 40%)
Redroot pigweed [8]
  N: redroot pigweed, herbicidal effect grade: 4 (Herbicidal rate of 70% or more and less than 90%)
Japanese bulrush; [26]
  Herbicidal effect, B: Japanese bulrush: 3 (Herbicidal rate of 40% or more and less than 70%)
Chickweed [9]
  P: chickweed, herbicidal effect grade: 4 (Herbicidal rate of 70% or more and less than 90%)
Blackgrass [10]; [28]
  J: blackgrass, herbicidal effect grade: 3 (Herbicidal rate of 40% or more and less than 70%)
Windgrass [11]
  L: windgrass, herbicidal effect grade: 0 (Herbicidal rate of 5% or less (almost no effect))
Wild oat [12]; [28]
  I: wild oat, herbicidal effect grade: 3 (Herbicidal rate of 40% or more and less than 70%)
Velvetleaf [13]
  M: velvetleaf, herbicidal effect grade: 3 (Herbicidal rate of 40% or more and less than 70%)
Barnyard grass [14]
  H: barnyard grass, herbicidal effect grade: 5 (Herbicidal rate of 90% or more (almost completely withered))
Lambsquarters [15]; [28]
  O: lambsquarters, herbicidal effect grade: 4 (Herbicidal rate of 70% or more and less than 90%)
Windgrass [16]; [28]
  L: windgrass, herbicidal effect grade: 4 (Herbicidal rate of 70% or more and less than 90%)
Green foxtail [17]
  G: green foxtail, herbicidal effect grade: 4 (Herbicidal rate of 70% or more and less than 90%)
Persian speedwell [18]
  R: persian speedwell, herbicidal effect grade: 1 (Herbicidal rate of 5% or more and less than 20%)
Blackgrass [19]
  J: blackgrass, herbicidal effect grade: 3 (Herbicidal rate of 40% or more and less than 70%)
Redroot pigweed [20]; [28]
  N: redroot pigweed, herbicidal effect grade: 4 (Herbicidal rate of 70% or more and less than 90%)
Chickweed [21]; [28]
  P: chickweed, herbicidal effect grade: 5 (Herbicidal rate of 90% or more (almost completely withered))
Southern crabgrass [22]
  F: southern crabgrass, herbicidal effect grade: 3 (Herbicidal rate of 40% or more and less than 70%)
Barnyard grass [23]; [28]
  H: barnyard grass, herbicidal effect grade: 4 (Herbicidal rate of 70% or more and less than 90%)
Italian ryegrass [24]; [28]
  K: Italian ryegrass, herbicidal effect grade: 3 (Herbicidal rate of 40% or more and less than 70%)
Velvetleaf [25]; [28]
  M: velvetleaf, herbicidal effect grade: 4 (Herbicidal rate of 70% or more and less than 90%)
Late watergrass; [26]
  Herbicidal effect, A: late watergrass: 3 (Herbicidal rate of 40% or more and less than 70%)
Chinese sprangletop; 320 g/ha
  herbicidal effect on Chinese sprangletop (D): 3 (Herbicidal rate of 40% or more and less than 70%)
